Experimental data: US11851426B2, “Bicyclic amines as CDK2 inhibitors” (Incyte Corporation, priority 2019, dated 2023)

Biological target: CDK2/Cyclin E1 (Homo sapiens (Human), UniProt P24941)
Assay: CDK2/Cyclin E1 HTRF enzyme activity assay
Type: biochemical
Conditions: 1 mM ATP; CDK2/Cyclin E1 0.25 nM; 60 minutes at room temperature
Description: Example A. CDK2/Cyclin E1 HTRF Enzyme Activity Assay
CDK2/Cyclin E1 enzyme activity assays utilize full-length human CDK2 co-expressed as N-terminal GST-tagged protein with FLAG-Cyclin E1 in a baculovirus expression system (Carna Product Number 04-165). Assays were conducted in white 384-well polystyrene plates in a final reaction volume of 8 μL. CDK2/Cyclin E1 (0.25 nM) was incubated with the compounds of the Examples (40 nL serially diluted in DMSO) in the presence of ATP (50 μM or 1 mM) and 50 nM ULight™-labeled eIF4E-binding protein 1 (THR37/46) peptide (PerkinElmer) in assay buffer (containing 50 mM HEPES pH 7.5, 1 mM EGTA, 10 mM MgCl2, 2 mM DTT, 0.05 mg/mL BSA, and 0.01% Tween 20) for 60 minutes at room temperature. The reactions were stopped by the addition of EDTA and Europium-labeled anti-phospho-4E-BP1 antibody (PerkinElmer), for a final concentration of 15 mM and 1.5 nM, respectively. HTRF signals were read after 1 hour at room temperature on a PHERAstar FS plate reader (BMG Labtech). Data was analyzed with IDBS XLFit and GraphPad Prism 5.0 software using a three or four parameter dose response curve to determine IC50 for each compound.

Question: `CC(C)COc1c(-c2cn[nH]c2)ccn2nc(NC3CCN(S(C)(=O)=O)CC3)nc12` [Example 3, 8-isobutoxy-N-(1-(methylsulfonyl)piperidin-4-yl)-7-(1H-pyrazol-4-yl)-[1,2,4]triazolo[1,5-a]pyridin-2-amine] was tested. Which IC50 did it give?
Answer: Its IC50 is at most 20 nM.

Question: Which IC50 does the source give for `C[C@H]1CCCN1c1c(-c2cn[nH]c2)ncc2nc(NC3CCN(S(C)(=O)=O)CC3)nn12` [Example 133, (S)-5-(2-Methylpyrrolidin-1-yl)-N-(1-(methylsulfonyl)piperidin-4-yl)-6-(1H-pyrazol-4-yl)-[1,2,4]triazolo[1,5-a]pyrazin-2-amine] here?
Answer: Its IC50 is at most 20 nM.

Question: `C[C@@H]1CN(S(C)(=O)=O)CC[C@@H]1Nc1nc2cnc(-c3cn[nH]c3)c(OC3CCCC3)n2n1` [Example 140, 5-(Cyclopentyloxy)-N-((3R,4S)-3-methyl-1-(methylsulfonyl)piperidin-4-yl)-6-(1H-pyrazol-4-yl)-[1,2,4]triazolo[1,5-a]pyrazin-2-amine] was tested. Which IC50 did it give?
Answer: Its IC50 is at most 20 nM.

Question: For `CC(C)COc1c(-c2cn[nH]c2)ccc2nc(NC3CCN(S(C)(=O)=O)CC3)nn12` [Example 79, 5-Isobutoxy-N-(1-(methylsulfonyl)piperidin-4-yl)-6-(1H-pyrazol-4-yl)-[1,2,4]triazolo[1,5-a]pyridin-2-amine], which IC50 is on record?
Answer: Its IC50 is at most 20 nM.

Question: Which IC50 does the source give for `CCCc1c(-c2cn[nH]c2)ccn2nc(NC3CCN(S(C)(=O)=O)CC3)nc12` [Example 37, N-(1-(methylsulfonyl)piperidin-4-yl)-8-propyl-7-(1H-pyrazol-4-yl)-[1.2.4]triazolo[1,5-a]pyridin-2-amine] here?
Answer: Its IC50 is at most 20 nM.

Question: With `CCN1CCN(CCCS(=O)(=O)N2CC[C@H](Nc3nc4c(OC(C)C)c(-c5cn[nH]c5)ncn4n3)[C@H](C)C2)CC1` [Example 62, N-((3R,4S)-1-((3-(4-Ethylpiperazin-1-yl)propyl)sulfonyl)-3-methylpiperidin-4-yl)-8-isopropoxy-7-(1H-pyrazol-4-yl)-[1,2,4]triazolo[1,5-c]pyrimidin-2-amine] as the compound, how does the IC50 read?
Answer: The IC50 was at most 20 nM.

Question: `CC(C)Oc1c(-c2cn[nH]c2)ncn2nc(N[C@H]3CCN(S(=O)(=O)CCCN4CCCCC4)C[C@H]3C)nc12` [Example 58, 8-Isopropoxy-N-((3R,4S)-3-methyl-1-((3-(piperidin-1-yl)propyl)sulfonyl)piperidin-4-yl)-7-(1H-pyrazol-4-yl)-[1,2,4]triazolo[1,5-c]pyrimidin-2-amine] was tested. Which IC50 did it give?
Answer: The IC50 was at most 20 nM.

Question: How did the IC50 turn out when `CS(=O)(=O)N1CCC(Nc2nc3c(-c4cccc(C(F)(F)F)c4)c(-c4cn[nH]c4)ccn3n2)CC1` [Example 26, N-(1-(methylsulfonyl)piperidin-4-yl)-7-(1H-pyrazol-4-yl)-8-(3-(trifluoromethyl)phenyl)-[1,2,4]triazolo[1,5-a]pyridin-2-amine] was run?
Answer: Its IC50 is at most 20 nM.

Question: Which IC50 does the source give for `C[C@@H]1CN(S(C)(=O)=O)CC[C@@H]1Nc1nc2ccc(-c3cn[nH]c3)c(OC3CCC(F)(F)C3)n2n1` (stereo partly drawn) [Example 75, 5-((3,3-Difluorocyclopentyl)oxy)-N-((3R,4S)-3-methyl-1-(methylsulfonyl)piperidin-4-yl)-6-(1H-pyrazol-4-yl)-[1,2,4]triazolo[1,5-a]pyridin-2-amine] here?
Answer: Its IC50 is at most 20 nM.

Question: `C[C@@H]1CN(S(=O)(=O)C2CC2)CC[C@@H]1Nc1nc2ccc(-c3cn[nH]c3)c(N3CCCCC3)n2n1` [Example 85, N-((3R,4S)-1-(Cyclopropylsulfonyl)-3-methylpiperidin-4-yl)-5-(piperidin-1-yl)-6-(1H-pyrazol-4-yl)-[1,2,4]triazolo[1,5-a]pyridin-2-amine] was tested. Which IC50 did it give?
Answer: The IC50 was at most 20 nM.

Question: `C[C@@H]1CN(S(=O)(=O)c2cn(C)cn2)CC[C@@H]1Nc1nc2ccc(-c3cn[nH]c3)c(N3CCCCC3)n2n1` [Example 86, N-((3R,4S)-3-Methyl-1-((1-methyl-1H-imidazol-4-yl)sulfonyl)piperidin-4-yl)-5-(piperidin-1-yl)-6-(1H-pyrazol-4-yl)-[1,2,4]triazolo[1,5-a]pyridin-2-amine] was tested. Which IC50 did it give?
Answer: Its IC50 is at most 20 nM.

Question: `C[C@@H]1CN(S(C)(=O)=O)CC[C@@H]1Nc1nc2cnc(-c3cn[nH]c3)c(OCC3CC3)n2n1` [Example 115, 5-(Cyclopropylmethoxy)-N-((3R,4S)-3-methyl-1-(methylsulfonyl)piperidin-4-yl)-6-(1H-pyrazol-4-yl)-[1,2,4]triazolo[1,5-a]pyrazin-2-amine] was tested. Which IC50 did it give?
Answer: The IC50 was at most 20 nM.

Question: Which IC50 does the source give for `CS(=O)(=O)N1CCC(Nc2nc3c(-c4ccc(C#N)c(F)c4)c(-c4cn[nH]c4)ncn3n2)CC1` [Example 36, 2-fluoro-4-(2-((1-(methylsulfonyl)piperidin-4-yl)amino)-7-(1H-pyrazol-4-yl)-[1,2,4]triazolo[1,5-c]pyrimidin-8-yl)benzonitrile] here?
Answer: Its IC50 is at most 20 nM.

Question: For `CC(C)CCOc1c(-c2cn[nH]c2)ncc2nc(N[C@H]3CCN(S(C)(=O)=O)C[C@H]3C)nn12` [Example 116, 5-(Isopentyloxy)-N-((3R,4S)-3-methyl-1-(methylsulfonyl)piperidin-4-yl)-6-(1H-pyrazol-4-yl)-[1,2,4]triazolo[1,5-a]pyrazin-2-amine], which IC50 is on record?
Answer: The IC50 was at most 20 nM.

Question: With `CC1CN(S(C)(=O)=O)CCC1Nc1nc2c(N3CCCCC3)c(-c3cn[nH]c3)ncn2n1` (stereo not drawn) [Example 50, N-(3-Methyl-1-(methylsulfonyl)piperidin-4-yl)-8-(piperidin-1-yl)-7-(1H-pyrazol-4-yl)-[1,2,4]triazolo[1,5-c]pyrimidin-2-amine] as the compound, how does the IC50 read?
Answer: Its IC50 is at most 20 nM.

Question: For `CS(=O)(=O)N1CCC(Nc2nc3cnc(-c4cn[nH]c4)c(N4CCC(F)(F)C4)n3n2)CC1` [Example 130, 5-(3,3-Difluoropyrrolidin-1-yl)-N-(1-(methylsulfonyl)piperidin-4-yl)-6-(1H-pyrazol-4-yl)-[1,2,4]triazolo[1,5-a]pyrazin-2-amine], which IC50 is on record?
Answer: Its IC50 is at most 20 nM.

Question: With `CC(C)CCOc1c(-c2cn[nH]c2)ncc2nc(NC3CCN(S(C)(=O)=O)CC3)nn12` [Example 121, 5-(Isopentyloxy)-N-(1-(methylsulfonyl)piperidin-4-yl)-6-(1H-pyrazol-4-yl)-[1,2,4]triazolo[1,5-a]pyrazin-2-amine] as the compound, how does the IC50 read?
Answer: The IC50 was at most 20 nM.

Question: Which IC50 does the source give for `CC1COCCC1Oc1c(-c2cn[nH]c2)ncc2nc(N[C@H]3CCN(S(C)(=O)=O)C[C@H]3C)nn12` (stereo partly drawn) [Example 111, N-((3R,4S)-3-Methyl-1-(methylsulfonyl)piperidin-4-yl)-5-((3-methyltetrahydro-2H-pyran-4-yl)oxy)-6-(1H-pyrazol-4-yl)-[1,2,4]triazolo[1,5-a]pyrazin-2-amine] here?
Answer: The IC50 was at most 20 nM.

Question: Which IC50 does the source give for `CCOc1c(-c2cn[nH]c2)ccn2nc(N[C@H]3CCN(S(=O)(=O)CCCN(C)C)C[C@H]3C)nc12` [Example 28, N-((3R,4S)-1-((3-(dimethylamino)propyl)sulfonyl)-3-methylpiperidin-4-yl)-8-ethoxy-7-(1H-pyrazol-4-yl)-[1,2,4]triazolo[1,5-a]pyridin-2-amine] here?
Answer: Its IC50 is at most 20 nM.

Question: How did the IC50 turn out when `CC(C)COc1c(-c2ccnc(N)c2)ccn2nc(NC3CCN(S(C)(=O)=O)CC3)nc12` [Example 16, 7-(2-aminopyridin-4-yl)-8-isobutoxy-N-(1-(methylsulfonyl)piperidin-4-yl)-[1,2,4]triazolo[1,5-a]pyridin-2-amine] was run?
Answer: Its IC50 is at most 20 nM.

Question: How did the IC50 turn out when `CC(C)Oc1c(-c2cn[nH]c2)ncn2nc(N[C@H]3CCN(S(=O)(=O)CCCCNCC(F)F)C[C@H]3C)nc12` [Example 64, N-((3R,4S)-1-((4-((2,2-Difluoroethyl)amino)butyl)sulfonyl)-3-methylpiperidin-4-yl)-8-isopropoxy-7-(1H-pyrazol-4-yl)-[1,2,4]triazolo[1,5-c]pyrimidin-2-amine] was run?
Answer: The IC50 was at most 20 nM.
